The text below walks through data of US6555574B1, “4-oxybenzopyran derivative” (Nissan Chemical Industries, Ltd., priority 1999, dated 2003).

`COc1ccc(CC(=O)Nc2cc3c(cc2[N+](=O)[O-])OC(C)(C)[C@H](O)[C@H]3Oc2ccccc2)cc1` (relative stereo) [Synthesis example 7, Trans-3,4-dihydro-2,2-dimethyl-6-(4-methoxyphenyl)acetylamino-7-nitro-4-phenyloxy-2H-1-benzopyran-3-ol] came in with a melting point of 178 to 178.6 °C.
In turn, `CCCO[C@H]1c2cc(NC(=O)Cc3ccc(OC)cc3)c([N+](=O)[O-])cc2OC(C)(C)[C@@H]1O` (relative stereo) [Synthesis example 4, (3R*, 4S*)-3,4-dihydro-2,2-dimethyl-4-propoxy-6-(4-methoxyphenylacetylamino)-7-nitro-2H-1-benzopyran-3-ol] yielded a melting point of 115 to 116 °C.
As to `COc1ccc(CC(=O)Nc2cc3c(cc2[N+](=O)[O-])OC(C)(C)[C@H](O)[C@H]3OCCc2ccccc2)cc1` [Synthesis example 6, Trans-3,4-dihydro-2,2-dimethyl-6-(4-methoxyphenyl)acetylamino-7-nitro-4-(2-phenylethoxy)-2H-1-benzoypyran-3-ol], the melting point was in the range of 125.2 to 125.5 °C.
The molecule `COc1ccc(CC(=O)Nc2cc3c(cc2[N+](=O)[O-])OC(C)(C)[C@H](O)[C@H]3OCc2ccccc2)cc1` [Synthesis example 8] came in with a melting point of 117.8 to 119.1 °C.

By melting point is commonly meant the temperature, or range, at which the solid turns liquid.
